These are literature values, as cited in patent US8617618B2, “Topical compositions containing magaldrate” (Difass International S.R.L., priority 2007, dated 2013).

For series [1] the following is noted: in water and alcohol; white, crystalline powder.
For series [2], the system named is gastric pH. The settings on record: rapid, persistent ability to maintain the gastric pH.
For series [3] the following is noted: single and repeated oral doses.
For series [4] the following is noted: humans, oral intake.

Regarding Magaldrate, in series [1], the solubility entry was “insoluble”. In series [2], the “gastric pH maintained” value was 3-5. In addition, in series [3], the toxicity entry is recorded as “almost non-toxic”. In series [4], the “absorption of aluminium or magnesium” value is on record as “not followed by any significant absorption”.
